Test results reported in ChEMBL document CHEMBL5360581, “Discovery of a novel dual functional phenylpyrazole-styryl hybrid that induces apoptotic and autophagic cell death in bladder cancer cells” (Eur J Med Chem, 2023).
pIC50: −log10 of the molar value. Activity calls are given as the source filed them. No cut-off for these calls is given here.

Key:
EJ-28 [1] = assay: Induction of autophagy in human EJ-28 cells assessed as increase in green fluorescence intensity incubated for 24 hrs by flow cytometry analysis; type: functional, cell-based; details: dose 5-12.5 µM
EJ-28 [2] = assay: Induction of autophagy in human EJ-28 cells assessed as upregulation of LC3B-I expression at 5 to 12.5 uM incubated for 24 to 72 hrs by Western blot analysis; type: functional, cell-based; details: dose 5-12.5 µM, time 24-72 hrs
EJ-28 [3] = assay: Induction of autophagy in human EJ-28 cells assessed as upregulation of Beclin-1 expression at 5 to 12.5 uM incubated for 24 to 72 hrs by Western blot analysis; type: functional, cell-based; details: dose 5-12.5 µM, time 24-72 hrs
A549 [4] = assay: Cytotoxicity against human A549 cells assessed inhibition of cell growth incubated for 72 hrs by MTT assay; type: functional, cell-based; details: A549, 72 h
EJ-28 [5] = assay: Induction of autophagy in human EJ-28 cells assessed as upregulation of Atg12 expression at 5 to 12.5 uM incubated for 24 to 72 hrs by Western blot analysis; type: functional, cell-based; details: dose 5-12.5 µM, time 24-72 hrs
EJ-28 [6] = assay: Induction of autophagy in human EJ-28 cells assessed as upregulation of Atg7 expression at 5 to 12.5 uM incubated for 24 to 72 hrs by Western blot analysis; type: functional, cell-based; details: dose 5-12.5 µM, time 24-72 hrs
HT-1080 = assay: Cytotoxicity against human HT-1080 cells assessed inhibition of cell growth incubated for 72 hrs by MTT assay; type: functional, cell-based; details: HT-1080, 72 h
EJ-28 [7] = assay: Induction of ROS generation in human EJ-28 cells at 1.25 to 10 uM incubated for 48 hrs by DCFDA staining based flow cytometry analysis; type: functional, cell-based; details: dose 1.25-10 µM
[8] = Cytotoxicity against human NHDF cells assessed inhibition of cell growth incubated for 72 hrs by MTT assay; type: toxicity, cell-based
EJ-28 [9] = assay: Induction of autophagy in human EJ-28 cells assessed as upregulation of AKT expression at 5 to 12.5 uM incubated for 48 to 72 hrs by Western blot analysis; type: functional, cell-based; details: dose 5-12.5 µM, time 48-72 hrs
EJ-28 [10] = assay: Induction of autophagy in human EJ-28 cells assessed as autophagic flux at 5 to 12.5 uM incubated for 36 to 48 hrs by flow cytometry analysis; type: functional, cell-based; details: dose 5-12.5 µM, time 36-48 hrs
EJ-28 [11] = assay: Induction of apoptosis in human EJ-28 cells assessed as upregulation of cleaved caspases-8 expression by Western blotting analysis; type: functional, cell-based; details: time 24-72 hrs
[12] = Selectivity index, ratio of IC50 for cytotoxicity against human NHDF cells to IC50 for cytotoxicity against human A549 cells; type: toxicity, cell-based; details: NHDF cells and A549 cells, read-out: Ratio IC50
EJ-28 [13] = assay: Induction of autophagy in human EJ-28 cells assessed as increase in green fluorescence intensity at 5 to 12.5 uM incubated for 36 to 48 hrs by flow cytometry analysis; type: functional, cell-based; details: dose 5-12.5 µM, time 36-48 hrs
EJ-28 [14] = assay: Induction of apoptosis in human EJ-28 cells assessed as upregulation of PUMA expression incubated for 48 hrs by Western blotting analysis; type: functional, cell-based
EJ-28 [15] = assay: Induction of apoptosis in human EJ-28 cells assessed as upregulation of Mcl-1 expression incubated for 24 hrs by Western blotting analysis; type: functional, cell-based
EJ-28 [16] = assay: Induction of cell cycle arrest in human EJ-28 cells assessed as accumulation of cells at G2/M phase at 2.5 uM incubated for 48 hrs by propidium iodide staining based flow cytometry (reference value: 20%); type: functional
A549 [17] = assay: Antiproliferative activity against human A549 cells assessed as reduction in cell viability at 20 uM measured for 72 hrs by MTT assay; type: functional, cell-based
EJ-28 [18] = assay: Induction of apoptosis in human EJ-28 cells assessed as upregulation of NOXA expression incubated for 24 hrs by Western blotting analysis; type: functional, cell-based
EJ-28 [19] = assay: Induction of autophagy in human EJ-28 cells assessed as upregulation of Atg5 expression at 5 to 12.5 uM incubated for 24 to 72 hrs by Western blot analysis; type: functional, cell-based; details: dose 5-12.5 µM, time 24-72 hrs
EJ-28 [20] = assay: Induction of cell cycle arrest in human EJ-28 cells assessed as accumulation of cells at G2/M phase at 10 uM incubated for 48 hrs by propidium iodide staining based flow cytometry (reference value: 20%); type: functional
EJ-28 [21] = assay: Induction of cell cycle arrest in human EJ-28 cells assessed as accumulation of cells at sub-G0/G1 phase at 10 uM incubated for 48 hrs by propidium iodide staining based flow cytometry (reference value: 48%); type: functional
[22] = Toxicity in Zebrafish embryo assessed as mortality at 12.5 to 50 uM administered for 4 hrs post fertilization and measured after 6 days post fertilization; design: species or system Danio rerio; details: in vivo, 144 h, dose 12.5-50 µM, time 6 day
EJ-28 [23] = assay: Induction of autophagy in human EJ-28 cells assessed as downregulation of EGFR expression at 5 to 12.5 uM incubated for 24 hrs by Western blot analysis; type: functional, cell-based; details: dose 5-12.5 µM
EJ-28 [24] = assay: Induction of apoptosis in human EJ-28 cells assessed as upregulation of cleaved bid expression incubated for 24 hrs by Western blotting analysis; type: functional, cell-based
EJ-28 [25] = assay: Anticancer activity against human EJ-28 cells cultured as 3D spheroids at 2.5 to 20 uM measured upto 5 days by PI/Hoechst 33342 staining based fluorescence microscopic analysis; type: functional, cell-based; details: dose 2.5-20 µM, time <= 5.0 day
SW-620 = assay: Antiproliferative activity against human SW620 cells assessed as reduction in cell viability at 20 uM measured for 72 hrs by MTT assay; type: functional, cell-based
EJ-28 [26] = assay: Induction of apoptosis in human EJ-28 cells assessed as upregulation of PARP expression incubated for 24 hrs by Western blotting analysis; type: functional, cell-based
EJ-28 [27] = assay: Cytotoxicity against human EJ-28 cells assessed inhibition of cell growth incubated for 72 hrs by MTT assay; type: functional, cell-based; details: EJ-28, 72 h
EJ-28 [28] = assay: Induction of morphological changes in human EJ-28 cells assessed as cell rounding at 7.5 uM incubated for 24 to 72 hrs by microscopic analysis; type: functional, cell-based; details: time 24-72 hrs
EJ-28 [29] = assay: Antimigratory activity in human EJ-28 cells at 1.25 to 10 uM measured for 24 hrs by imaging analysis; type: functional, cell-based; details: dose 1.25-10 µM
EJ-28 [30] = assay: Induction of autophagy in human EJ-28 cells assessed as upregulation of Atg16L1 expression at 5 to 12.5 uM incubated for 24 to 72 hrs by Western blot analysis; type: functional, cell-based; details: dose 5-12.5 µM, time 24-72 hrs
EJ-28 [31] = assay: Induction of autophagy in human EJ-28 cells assessed as upregulation of Atg5-Atg12 expression at 5 to 12.5 uM incubated for 24 to 72 hrs by Western blot analysis; type: functional, cell-based; details: dose 5-12.5 µM, time 24-72 hrs
[32] = Selectivity index, ratio of IC50 for cytotoxicity against human NHDF cells to IC50 for cytotoxicity against human SW620 cells
EJ-28 [33] = assay: Induction of apoptosis in human EJ-28 cells assessed as upregulation of Bcl-xL expression incubated for 24 hrs by Western blotting analysis; type: functional, cell-based
[34] = Selectivity index, ratio of IC50 for cytotoxicity against human NHDF cells to IC50 for cytotoxicity against human EJ-28 cells
EJ-28 [35] = assay: Induction of autophagy in human EJ-28 cells assessed as upregulation of LC3B-2 expression at 5 to 12.5 uM incubated for 24 to 72 hrs by Western blot analysis; type: functional, cell-based; details: dose 5-12.5 µM, time 24-72 hrs
EJ-28 [36] = assay: Induction of cell cycle arrest in human EJ-28 cells assessed as accumulation of cells at S phase at 5 uM incubated for 48 hrs by propidium iodide staining based flow cytometry (reference value: 30%); type: functional

O=[N+]([O-])c1cccc(/C=C/c2cc(-c3cc(Cl)ccc3O)n(-c3ccccc3)n2)c1
Activity (EJ-28 [1]): Dose-Dependent Effect
Activity (EJ-28 [2]): Active
Activity (EJ-28 [3]): inactive
pIC50 (A549 [4]): 4.82
Activity (EJ-28 [5]): Active
Activity (EJ-28 [6]): inactive
pIC50 (HT-1080): 4.89
Activity (EJ-28 [7]): inactive
IC50 at 72 h [8]: 39.7 µM
Activity (EJ-28 [9]): Active
Activity (EJ-28 [10]): Active
Activity (EJ-28 [11]): Dose-Dependent Effect
selectivity ratio [12]: 2.6
Activity (EJ-28 [13]): inactive
Activity (EJ-28 [14]): Active
Activity (EJ-28 [15]): Active
Activity (EJ-28 [16]): 15%
Activity (A549 [17]): Active
Activity (EJ-28 [18]): Active
Activity (EJ-28 [19]): Active
Activity (EJ-28 [20]): 17%
Activity (EJ-28 [21]): 58%
Activity [22]: Non-Toxic
Activity (EJ-28 [23]): Active
Activity (EJ-28 [24]): Active
Activity (EJ-28 [25]): Active
Activity (SW-620): Active
Activity (EJ-28 [26]): Active
pIC50 (EJ-28 [27]): 5.55
Activity (EJ-28 [28]): Active
inhibition (EJ-28 [29]): Active
Activity (EJ-28 [30]): inactive
Activity (EJ-28 [31]): Active
Ratio IC50 [32]: 2.6
Activity (EJ-28 [33]): inactive
Ratio IC50 [34]: 2.6
Activity (EJ-28 [35]): Active
Activity (EJ-28 [36]): 21%
